Values quoted from earlier work in patent publication US5399360A, “Pharmaceutical compositions” (Sandoz Pharmaceuticals Corp., priority 1986, dated 1995).

Conditions: described in German Patent 2,111,071

**Q.** For `CN1CCC(=C2c3ccccc3CC(=O)c3sccc32)CC1` [Ketotifen, 4-(1-methyl-4-piperidylidene)-4H-benzo[4,5]cyclohepta[1,2-b]thiophen-10(9H)-one], which pharmacological properties is on record?
**A.** anti-anaphylacticand anti-histamine properties
